Measurements: patent US20240058318A1, “DEGRADING PKCB1 TO TREAT CANCER” (Mayo Foundation for Medical Education and Research, priority 2020, published 2024)
Entries after “also recorded” stand apart in the source; their conditions may differ. One block for each molecule: values may come before it.

Tests used:
[1] = system: Rb-proficient (MDAMB231) and Rb-deficient (BT549 and MDAMB436) TNBC cells; assay: CV proliferation assay, TNBC cells (statements across lines); type: cell-based; settings: for inhibition of growth of TNBC cells: MDAMB231, BT549, MDAMB436, CV assay; for induction of apoptosis: MDAMB231 and BT549 cells (FIG. 4A and TABLE 1)
Method: (§1) Cell proliferation rates were determined using crystal violet assays. One thousand cells per well were plated in 96 well tissue culture plates and treated the following day with a bifunctional compound or control for 7 days in replicates of 8. Cells were fixed with 25% glutaraldehyde for 10 minutes with shaking, washed 5 times with distilled water, stained with a 1% crystal violet solution (solubilized in 25% methanol) for 10 minutes, washed again 5 times and allowed to dry. De-staining was performed using […] sodium citrate in 50% ethanol followed by quantification using a 96 well spectrophotometer set at an absorbance of 550 nm.
as §1, with “using CV” for “using crystal violet”, “assays. Two” for “assays. One”, “thousand (2000) or 4000” for “thousand”, “for 6” for “for 7”, “of 6.” for “of 8.”

MCF7AC1 cells = assay: CV proliferation assay, ER+ MCF7AC1; type: cell-based
Method: as §1
as §1, with “using CV” for “using crystal violet”, “assays. Two” for “assays. One”, “thousand (2000) or 4000” for “thousand”, “for 6” for “for 7”, “of 6.” for “of 8.”

[2] = system: PKCβ1, E2F1, and Cyclin D1; assay: Western blot, BT549 and MDAMB436 cells (Example 6); type: cell-based; settings: 1 μM, 24, 48, 72 hours
Method: TNBC BT549 and MDAMB436 cells were cultured in phenol-red free DMEM/F12 medium supplemented with 10% fetal bovine serum (FBS) and 1% AA. On day 1, cells were plated at a density of 2×10^5 BT549 cells or 4×10^5 MDAMB436 cells in a 6-well plate (two wells per treatment). The next day, cells were treated with DMSO, 1 μM Pr-9 (positive control), 1 μM Pr-9-1, 1 μM Pr-9-4, or 1 μM ENDX (negative control). Radioimmunoprecipitation Assay (RIPA) protein lysates were collected 24, 48, and 72 hours after treatment.
For western blot analysis, […] of protein lysates were run on Criterion precast 10% Bis-Tris gel, transferred to PVDF membrane, incubated in TBST-5% milk for one hour, and then incubated overnight with PKCβ1 (SC8049, mouse, 1:200), E2F1 (SC251, mouse, 1:250), Cyclin D1 (CS2978, rabbit, 1:1000), or Actin (Sigma A2228, mouse, 1:10,000 or CS8457, rabbit, 1:2000) primary antibodies in TBST-5% BSA solution. Membranes were washed in TBS-T, incubated for one-hour in HRP-linked anti-rabbit or anti-mouse secondary antibodies in TBST-5% milk, and washed in TBS-T. Bands were developed using west-pico or west-femto chemiluminescent substrate reagents.

BT549 cells = assay: Crystal violet (CV) proliferation assay, BT549; type: cell-based; settings: BT549 (PKCß1 high, Rb negative), 2000 cells
Method: as §1, with “One thousand cells per well were plated in 96 well tissue culture plates and treated the following day with a bifunctional compound or control for 7 days in replicates of 8.” left out

MDAMB231 cells = assay: Crystal violet (CV) proliferation assay, MDAMB231; type: cell-based; settings: MDAMB231 (PKCß1 high, Rb positive), 2000 cells
Method: as §1, with “One thousand cells per well were plated in 96 well tissue culture plates and treated the following day with a bifunctional compound or control for 7 days in replicates of 8.” left out

MDAMB436 cells = assay: Crystal violet (CV) proliferation assay, MDAMB436; type: cell-based; settings: MDAMB436 (PKCß1 low, Rb negative), 2000 cells
Method: as §1, with “One thousand cells per well were plated in 96 well tissue culture plates and treated the following day with a bifunctional compound or control for 7 days in replicates of 8.” left out

KURAMOCHI cells = assay: CV proliferation assay, KURAMOCHI ovarian cancer cells; type: cell-based; settings: KURAMOSHI (PKCß1 low), 1000 cells/well
Method: as §1
(§2) Based on the potent anti-proliferative activity of ENDX-PROTACs TC-Pr-006, TC-Pr-007, TC-Pr -008, and TC-Pr -009 in TNBC cells, the efficacy of these compounds for inhibiting the growth of ovarian cancer cells was tested. This analysis utilized KURAMOCHI cells, which represent the high-grade serous subtype (the most malignant form that accounts for 70% of all ovarian cancers and associates with poor clinical outcome) and MDAH-2774 cells, which represent endometrioid ovarian cancer and accounts for 20% of all ovarian cancer. PKCβ1 was confirmed to be expressed in both ovarian cancer cell line models, with MDAH-2774 cells expressing higher amounts of PKCβ1 compared to KURAMOCHI cells (FIG. 5A).

MDAH-2774 cells = assay: CV proliferation assay, MDAH-2774 ovarian cancer cells; type: cell-based; settings: MDAH-2774 (PKCß1 high), 1000 cells/well
Method: as §1, §2

PKCβ1 = biological target: T1, PKCβ1 (Homo sapiens, UniProt P05771); assay: Western blot, PKCβ1 expression in MCF7AC1 cells; type: cell-based; settings: 1 μM, within 72 hours, drugs replenished every 24 hours
T1 construct: western blots showing expression of PKCβ1 in MCF7AC1 cells treated with 1 μM concentration of the ENDX-PROTACs or ENDX; endogenous in cells; host or cells: MCF7AC1 (ER+ breast cancer cells)
T1 sequence (P05771 whole entry): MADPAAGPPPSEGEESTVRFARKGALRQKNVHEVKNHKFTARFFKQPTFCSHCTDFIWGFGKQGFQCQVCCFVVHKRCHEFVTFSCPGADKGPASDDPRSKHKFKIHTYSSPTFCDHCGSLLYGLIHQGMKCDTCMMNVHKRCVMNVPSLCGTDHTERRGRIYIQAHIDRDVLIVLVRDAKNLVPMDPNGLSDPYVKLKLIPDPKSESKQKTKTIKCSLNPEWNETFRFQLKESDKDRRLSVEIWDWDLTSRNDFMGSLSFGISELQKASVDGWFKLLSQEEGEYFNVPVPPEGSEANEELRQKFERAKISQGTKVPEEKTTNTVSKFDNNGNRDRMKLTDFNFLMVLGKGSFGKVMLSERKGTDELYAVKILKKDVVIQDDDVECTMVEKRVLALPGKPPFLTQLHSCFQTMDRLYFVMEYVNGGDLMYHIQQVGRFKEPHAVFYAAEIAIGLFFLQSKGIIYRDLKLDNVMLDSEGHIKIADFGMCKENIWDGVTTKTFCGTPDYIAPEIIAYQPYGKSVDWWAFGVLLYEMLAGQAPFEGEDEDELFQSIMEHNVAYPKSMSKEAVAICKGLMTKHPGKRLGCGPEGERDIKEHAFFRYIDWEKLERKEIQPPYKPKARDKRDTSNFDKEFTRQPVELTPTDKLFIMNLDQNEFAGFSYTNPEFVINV
Method: For western blotting analysis, cells were treated with vehicle (DMSO) or 1 μM of the indicated ENDX-PROTAC's or parent drug ENDX for 24, 48 and 72 hours with the drugs replenished every 24 hours. 25 μg of protein lysates were run on 10% Bis-Tris XT Criterion precast SDS-PAGE gels and transferred on to PVDF membrane. Following blocking with TB ST-5% milk, the membranes were probed with primary antibodies (1:500 — 1:2000 dilutions) for PKCβ1 (Abcam #136917), ERα (SC #8002), E2F1 (SC #251) and Actin (CS#8457) in TBST-5% BSA and secondary antibodies (1:2000 dilution) in TBST-5% milk. Membranes were developed using chemiluminescent WestPico or WestFemto detection solutions on the Li-Cor Imaging system.

[3] = Pharmacokinetics in mice, plasma by UPLC-MS/MS; type: in vivo, female CD1 mice; settings: for Concentration ENDX PROTAC 9: PO 10 mg/kg, mouse plasma, individual samples
Method: ENDX PROTAC 7 and PROTAC 9 pharmacokinetics were characterized in female CD1 mice. Blood samples were collected from mice anesthetized under isoflurane via retro-orbital eye bleed into tubes containing EDTA and immediately chilled on ice. NaF was added to the EDTA collection tubes to help stabilize the drug in whole blood for the second IV and IP studies with ENDX PROTAC 9, and for the IV and oral studies with PROTAC 7. Plasma and red blood cells were separated immediately by centrifugation in a refrigerated centrifuge at 4° C. The plasma was transferred to a separate tube and immediately frozen at −20° C.
For IV dosing, ENDX PROTAC 9 was dissolved in 10% DMSO, 10% PEG 400, and 80% normal saline for a final concentration of 0.2 mg/mL ENDX PROTAC 9 for the 1 mg/kg IV doses. ENDX PROAC 7 was dissolved in 15% DMSO, 9.44% PEG400, and […] normal saline for a final concentration of 0.19 mg/mL for the 1 mg/kg IV doses. Blood samples (3 mice per time-point) were collected 5 minutes, 15 minutes, 0.5 hour, 1 hour, 2 hours, 4 hours, 8 hours, and 24 hours after administration of the ENDX PROTAC. A second IV study was performed for ENDX PROTAC 9 in which blood samples (3 mice per time-point) were collected 5 minutes, 15 minutes, 1 hour, and 2 hours after administration of ENDX PROTAC 9. For oral dosing, ENDX PROTAC 9 (10 mg/kg) and ENDX PROTAC 7 (10 mg/kg) were suspended in 1 mM ascorbic acid:PEG400, 1:1 v/v for a final concentration of 1.0 mg/mL ENDX PROTAC. Blood samples (three mice per time-point) were collected 15 minutes, 0.5 hour, 1 hour, 2 hours, 4 hours, 6 hours, 8 hours, and 24 hours after administering the ENDX PROTAC. For LP. dosing, ENDX PROTAC 9 (4 mg/kg) was prepared in 1 mM ascorbic acid:PEG400, 1:1 v/v for a final concentration of 0.4 mg/mL ENDX PROTAC 9. Blood samples (three mice per time-point) were collected 15 minutes, 0.5 hour, 1 hour, 2 hours, 4 hours, 6 hours, 8 hours, and 24 hours after administration. Plasma concentrations of ENDX PROTAC 7 and 9 were measured using UPLC-MS/MS.

IC50 (MDAMB436 cells): 10000 nM
Structure (SMILES): CC/C(=C(\c1ccc(O)cc1)c1ccc(OCCN(C)C(=O)COCCNC(=O)c2ccc3c(c2)CN([C@H]2CCC(=O)NC2=O)C3=O)cc1)c1ccccc1 [TC-Pr-004]
IC50 (result in words) (BT549 cells): No major killing,
IC50 (result in words) (MDAMB231 cells): No major killing

IC50 (BT549 cells): > 10000 nM
IC50 (MDAMB231 cells): > 10000 nM
IC50 (MDAMB436 cells): 100 to 1000 nM
Structure (SMILES): CC/C(=C(\c1ccc(O)cc1)c1ccc(OCCN(C)C(=O)CCOCCNC(=O)c2ccc3c(c2)CN([C@H]2CCC(=O)NC2=O)C3=O)cc1)c1ccccc1 [TC-Pr-005]

IC50 (BT549 cells): 482 nM
IC50 (KURAMOCHI cells; read-out: Approximate IC50): > 10000 nM
IC50 (MDAMB231 cells): 532 nM
IC50 (MDAMB436 cells): 333 nM
IC50 (MDAH-2774 cells; read-out: Approximate IC50): > 10000 nM
Structure (SMILES): CC/C(=C(\c1ccc(O)cc1)c1ccc(OCCN(C)C(=O)COCCOCCNC(=O)c2ccc3c(c2)CN([C@H]2CCC(=O)NC2=O)C3=O)cc1)c1ccccc1 [TC-Pr-006]

IC50 (BT549 cells): 225 nM
IC50 (MDAMB231 cells): 131 nM
IC50 (MDAMB436 cells): 74 nM
PKCβ1 polypeptide degradation (PKCβ1): rapidly degraded PKCβ1 polypeptides
Structure (SMILES): CC/C(=C(\c1ccc(O)cc1)c1ccc(OCCN(C)C(=O)CCOCCNC(=O)Cc2ccc3c(c2)CN([C@H]2CCC(=O)NC2=O)C3=O)cc1)c1ccccc1 [TC-Pr-008]
induction of apoptosis [1]: induced apoptosis

Concentration ENDX PROTAC 9 ([3]; 120 minutes, listed as ENDX PROTAC 9, 10 mg/kg): BLD*
Concentration ENDX PROTAC 9 ([3]; 360 minutes, listed as ENDX PROTAC 9, 10 mg/kg): BLD
Concentration ENDX PROTAC 9 ([3]; 480 minutes, listed as ENDX PROTAC 9, 10 mg/kg): BLD
Concentration ENDX PROTAC 9 ([3]; 1440 minutes): BLD
time of peak plasma concentration ([3]; mice, I.V. 1 mg/kg, second study, NaF added to EDTA tubes): 5 min
stability in whole blood ([3]; mouse whole blood, comparison of IV studies with and without NaF): unstable in whole blood
PKCβ1 polypeptide degradation (PKCβ1): rapidly degraded PKCβ1 polypeptides
Structure (SMILES): CCC(=C(c1ccc(O)cc1)c1ccc(OCCN(C)C(=O)COCCOCCNC(=O)Cc2ccc3c(c2)CN(C2CCC(=O)NC2=O)C3=O)cc1)c1ccccc1 (stereo not shown) [TC-Pr-009, 2-[2-(2-2-[2-(2,6-dioxopiperidin-3-yl)-1-oxo-2,3-dihydro-1H-isoindo1-5-yl]acetamidoethoxy)ethoxy]-N-(2-4-[1-(4-hydroxyphenyl)-2-phenylbut-1-en-1-yl]phenoxyethyl)-N-methylacetamide]
induction of apoptosis [1]: induced apoptosis
PKCβ1 protein levels [2]: altered to varying extent
protein levels of E2F1 and Cyclin D1 ([2]; listed as Pr-9): clearly reduced by 48 hours; also recorded: reduced protein levels

More lines, now with the values behind:

Structure (SMILES): CC/C(=C(\c1ccc(O)cc1)c1ccc(OCCN(C)C(=O)COCCOCCN(C)C(=O)Cc2ccc3c(c2)CN(C2CCC(=O)NC2=O)C3=O)cc1)c1ccccc1 (stereo not shown) [Pr-9-1]
inhibition of growth of TNBC cells [1]: did not inhibit growth of MDAMB231, BT549, or MDAMB436 TNBC cells as effectively
inhibition of growth of ER+ MCF7AC1 cells (MCF7AC1 cells): inhibited growth of ER+ MCF7AC1 cells
impact on PKCβ1, E2F1, and Cyclin D1 protein expression [2]: lack of impact

Structure (SMILES): CC/C(=C(\c1ccc(O)cc1)c1ccc(OCCN(C)C(=O)COCCO[C@@H]2CCN(C(=O)Cc3ccc4c(c3)CN(C3CCC(=O)NC3=O)C4=O)C2)cc1)c1ccccc1 (stereo partly shown) [Pr-9-4]
inhibition of growth of TNBC cells [1]: did not inhibit growth of MDAMB231, BT549, or MDAMB436 TNBC cells as effectively
inhibition of growth of ER+ MCF7AC1 cells (MCF7AC1 cells): inhibited growth of ER+ MCF7AC1 cells
impact on PKCβ1, E2F1, and Cyclin D1 protein expression [2]: lack of impact

Structure (SMILES): CC/C(=C(\c1ccc(O)cc1)c1ccc(OCCN(C)C(=O)COCCNC(=O)c2cccc3c2CN([C@H]2CCC(=O)NC2=O)C3=O)cc1)c1ccccc1 [TC-Pr-001]
IC50 (result in words) (BT549 cells): No major killing
IC50 (result in words) (MDAMB231 cells): No major killing
IC50 (MDAMB436 cells): 10000 nM

Structure (SMILES): CC/C(=C(\c1ccc(O)cc1)c1ccc(OCCN(C)C(=O)CCOCCNC(=O)c2cccc3c2CN([C@H]2CCC(=O)NC2=O)C3=O)cc1)c1ccccc1 [TC-Pr-002]
IC50 (result in words) (BT549 cells): No major killing
IC50 (result in words) (MDAMB231 cells): No major killing
IC50 (result in words) (MDAMB436 cells): No major killing

Structure (SMILES): CC/C(=C(\c1ccc(O)cc1)c1ccc(OCCN(C)C(=O)COCCOCCNC(=O)c2cccc3c2CN([C@H]2CCC(=O)NC2=O)C3=O)cc1)c1ccccc1 [TC-Pr-003]
IC50 (result in words) (BT549 cells): No major killing
Approximate IC50 (result in words) (KURAMOCHI cells): No killing
IC50 (result in words) (MDAMB231 cells): No major killing
IC50 (result in words) (MDAMB436 cells): No major killing
Approximate IC50 (result in words) (MDAH-2774 cells): No killing
